Measured values published in PubChem BioAssay (NCI).
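1) Cells in 96-well plates. 2) Compound, 48 h, 5 concentrations. 3) Linear interpolation between surrounding doses. 4) Unreached endpoint = highest concentration. Definition used: TGI = concentration required for complete inhibition of growth.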

What was measured:
Test in all cases: growth of human tumour cells (NCI), 48 h
[1] = test system: MCF7 breast
[2] = test system: EKVX NSCLC
[3] = test system: KM12 colon
[4] = test system: COLO 205 colon
[5] = test system: SK-OV-3 ovarian
[6] = test system: U251 CNS
[7] = test system: SF-268 CNS
[8] = test system: BT-549 breast
[9] = test system: IGROV1 ovarian
[10] = test system: SNB-75 CNS
[11] = test system: OVCAR-8 ovarian
[12] = test system: TK-10 renal
[13] = test system: OVCAR-3 ovarian
[14] = test system: NCI-H522 lung
[15] = test system: NCI/ADR-RES ovarian
[16] = test system: MDA-MB-231 breast
[17] = test system: SN12C renal
[18] = test system: HCC-2998 colon
[19] = test system: HS 578T breast
[20] = test system: MDA-MB-435
[21] = test system: ACHN renal
[22] = test system: MOLT-4 leukemia
[23] = test system: SF-539 CNS
[24] = test system: HL-60(TB) leukemia
[25] = test system: UO-31 renal
[26] = test system: HOP-92 NSCLC
[27] = test system: SNB-19 CNS
[28] = test system: SK-MEL-5 melanoma
[29] = test system: CAKI-1 renal
[30] = test system: 786-0 renal
[31] = test system: A498 renal
[32] = test system: RXF 393 renal
[33] = test system: NCI-H23 lung
[34] = test system: SK-MEL-2 melanoma
[35] = test system: LOX IMVI melanoma
[36] = test system: CCRF-CEM leukemia
[37] = test system: UACC-257 melanoma
[38] = test system: K-562 leukemia
[39] = test system: M14 melanoma
[40] = test system: DU-145 prostate
[41] = test system: OVCAR-4 ovarian
[42] = test system: T-47D breast
[43] = test system: OVCAR-5 ovarian
[44] = test system: MDA-N
[45] = test system: SW-620 colon
[46] = test system: HOP-62 NSCLC
[47] = test system: SF-295 CNS
[48] = test system: MALME-3M melanoma
[49] = test system: NCI-H226 lung
[50] = test system: HT29 colon
[51] = test system: PC-3 prostate
[52] = test system: SR leukemia
[53] = test system: UACC-62 melanoma
[54] = test system: HCT-15 colon
[55] = test system: A549 NSCLC
[56] = test system: RPMI-8226 leukemia

Measured: TGI

C=CCn1c(N)c(C#N)c(C#N)c1-c1ccccc1
> 100 µM: all assays above
